Test results reported in patent publication US10144715B2, “Piperazine derivatives as liver X receptor modulators” (priority 2014, dated 2018).
Where two headings read alike, the source gives them in different places.

What was measured:
[1] = biological target: T1, LXR α LBD protein (Homo sapiens (Human), UniProt Q13133); test: Human LXRα coactivator recruitment FRET assay, agonist mode; type: biochemical
Summary of the method: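 Time-resolved FRET (delay 100 µs, window 200 µs) after 2 h rt incubation of compound with 10 nM (2×) GST-tagged LXRα or LXRβ LBD plus 200 nM fluorescein-SRC2-3 and 20 nM Tb-anti-GST (4×). Percent control vs concentration fit to four-parameter model; EC50 at inflection.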

[2] = biological target: T1, LXR α LBD protein; test: LXR α radioligand binding assay (SPA, competition with [3H]TO901317); conditions: read-out: LXRα Binding Ki
[3] = biological target: Gal4 DNA binding domain fused to the LBD of LXRβ in HEK293 cells (Homo sapiens (Human), UniProt P55055); test: cell-based
[4] = biological target: T2, LXR β LBD protein (Homo sapiens (Human), UniProt P55055); test: biochemical; type: binding; conditions: read-out: LXRβ Binding Ki
Target sequence in this assay (P55055 222-460 limits assumed): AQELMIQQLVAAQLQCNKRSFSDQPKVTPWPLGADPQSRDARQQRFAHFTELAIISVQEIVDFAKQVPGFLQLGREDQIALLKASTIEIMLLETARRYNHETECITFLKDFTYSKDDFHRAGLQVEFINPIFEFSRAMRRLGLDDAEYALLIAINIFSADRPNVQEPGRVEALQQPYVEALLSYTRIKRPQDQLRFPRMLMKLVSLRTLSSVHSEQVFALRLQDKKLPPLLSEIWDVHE

[5] = biological target: Gal4 DNA binding domain fused to the LBD of LXRα in HEK293 cells (Homo sapiens (Human), UniProt Q13133); test: LXR luciferase transcriptional reporter gene assay, agonist mode, LXRα; type: cell-based
[6] = biological target: T2, LXR β LBD protein; test: biochemical; type: biochemical; conditions: for EC50: read-out: FRET LXRβ EC50
Experimental: Two μL of the DMSO solutions were transferred to the plate and 38 μL of 10 nM LXRα-LBD or LXRβ-LBD (2×) were added immediately to the wells. The plate was shaken for 5 min at rt on an orbital micro shaker (DPC MicroMix® 5), after which 40 μL of 200 nM fluorescein-SRC2-3 peptide and 20 nM Terbium-anti-GST-antibody (Cat# PV3550, Life Technologies, Grand Island, N.Y.) solution (4×) were added to all. The plate was sealed and shaken for 2 min at rt, and incubated at rt for 2 h without agitation. […] The delay and window times were set at 100 and 200 microseconds, respectively. […] The percent control vs. compound concentration data were fit into a four-parameter model, and EC50 values were calculated from the fit as the concentrations corresponding to the inflection points on the concentration-response curves.
Target sequence in this assay (P55055 222-460): as the sequence (P55055 222-460 limits assumed) above

[7] = agonist mode, read-out: Cell LXRα EC50
[8] = Biological Test Example 3, agonist mode

T1 sequence (Q13133 209-447): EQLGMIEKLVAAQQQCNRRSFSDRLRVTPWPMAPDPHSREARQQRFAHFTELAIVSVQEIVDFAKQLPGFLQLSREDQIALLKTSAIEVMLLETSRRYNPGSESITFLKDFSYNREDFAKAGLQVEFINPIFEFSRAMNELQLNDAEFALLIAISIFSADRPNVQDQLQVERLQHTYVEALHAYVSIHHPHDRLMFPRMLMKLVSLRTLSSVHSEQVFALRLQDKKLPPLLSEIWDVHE
Gal4 DNA binding domain fused to the LBD of LXRα in HEK293 cells, sequence (Q13133 209-447): as above
Gal4 DNA binding domain fused to the LBD of LXRβ in HEK293 cells, sequence (P55055 222-460 limits assumed): as the sequence (P55055 222-460 limits assumed) above

Compound | EC50 ([1]; agonist mode) | FRET LXRα efficacy ([1]; agonist mode) | Ki [2] | EC50 [3] | Cell LXRβ efficacy ([3]; agonist mode) | Ki [4] | Cell LXRα efficacy [5] | EC50 [5, 7] | FRET LXRβ efficacy ([6]; agonist mode) | EC50 [6] | EC50 ([5]; read-out: Cell LXRα EC50) | FRET LXRα efficacy [1] | EC50 [5] | FRET LXRβ efficacy [6] | EC50 [1, 8] | Ki ([4]; Biological Test Example 1) | Cell LXRβ efficacy [3]
CS(=O)(=O)c1cccc(N2CCN(c3nccc(C(F)(F)F)n3)[C@H](c3ccc(F)cc3)C2)c1 [8-1, (R)-2-(2-(4-fluorophenyl)-4-(3-(methylsulfonyl)phenyl)piperazin-1-yl)-4-(trifluoromethyl)pyrimidine] | 0.665 µM | 41% | 0.454 µM | 0.493 µM | 493 (31) % | 0.036 µM | 2160 (16) % | 2.16 µM | 62 (75) % | 0.062 µM |  |  |  |  |  |  | 
CC(C)(O)c1ccc(CN2CCN(c3cccc(S(C)(=O)=O)c3)C[C@@H]2c2ccccc2)cc1 [10-12, (S)-2-(4-((4-(3-(methylsulfonyl)phenyl)-2-phenylpiperazin-1-yl)methyl)phenyl)propan-2-ol] | 1.37 µM | 18% | > 3.33 µM | > 20 µM |  | > 2.5 µM |  |  | 1141 (33) % | 1.14 µM | > 20 µM |  |  |  |  |  | 
CC(C)c1ccc(CN2CCN(c3cccc(S(C)(=O)=O)c3)C[C@H]2c2ccccc2)cc1 [46-7, (R)-1-(4-isopropylbenzyl)-4-(3-(methylsulfonyl)phenyl)-2-phenylpiperazine] | > 50 µM |  | > 3.33 µM | > 20 µM |  | > 2.5 µM |  |  |  | > 50 µM | > 20 µM |  |  |  |  |  | 
CS(=O)(=O)c1cccc(N2CCN(Cc3ccc(OC(F)F)cc3)[C@@H](c3ccccc3)C2)c1 [46-11, (S)-1-(4-(difluoromethoxy)benzyl)-4-(3-(methylsulfonyl)phenyl)-2-phenylpiperazine] | 17.3 µM |  | 3.29 µM | > 20 µM |  | 0.445 µM | 3753 (7) % |  |  | 0.6 µM |  | 17300 (33) % | 3.75 µM | 600 (20) % |  |  | 
CC(C)c1ccc(CN2CCN(c3cccc(S(C)(=O)=O)c3)CC2c2ccccc2)cn1 (stereo not drawn) [46-42, 1-((6-isopropylpyridin-3-yl)methyl)-4-(3-(methylsulfonyl)phenyl)-2-phenylpiperazine] | 0.984 µM | 53% | > 3.33 µM | 5.9 µM | 5895 (9) % | > 2.5 µM |  | > 20 µM | 1048 (53) % | 1.05 µM |  |  |  |  |  |  | 
CS(=O)(=O)c1cc(F)cc(N2CCN(Cc3ccc(C(F)(F)F)nc3)C(c3ccccc3)C2)c1 (stereo not drawn) [46-53, 4-(3-fluoro-5-(methylsulfonyl)phenyl)-2-phenyl-1-((6-(trifluoromethyl)pyridin-3-yl)methyl)piperazine] | 2.59 µM | 46% | > 3.33 µM | 3.28 µM | 3280 (28) % | 1.52 µM | 11138 (23) % | 11.1 µM |  | 0.924 µM |  |  |  |  |  |  | 
CS(=O)(=O)c1cccc(N2CCN(CC3CCCOC3)[C@@H](c3ccccc3)C2)c1 (stereo partly drawn) [51-4, (2S)-4-(3-(methylsulfonyl)phenyl)-2-phenyl-1-((tetrahydro-2H-pyran-3-yl)methyl)piperazine] |  |  | > 3.33 µM | > 20 µM |  | 0.546 µM |  |  |  | > 50 µM | > 20 µM |  |  |  | > 50 µM |  | 
CS(=O)(=O)c1cccc(N2CCN(CC3CCOCC3)[C@@H](c3ccccc3)C2)c1 [51-5, (S)-4-(3-(methylsulfonyl)phenyl)-2-phenyl-1-((tetrahydro-2H-pyran-4-yl)methyl)piperazine] |  |  | > 3.33 µM | > 20 µM |  |  |  |  |  | > 50 µM | > 20 µM |  |  |  | > 50 µM | 1.02 µM | 
CS(=O)(=O)c1cccc(N2CCN(C[C@H]3CC[C@@H](C(F)(F)F)CC3)[C@@H](c3ccc(F)cc3)C2)c1 [Cpd No 48-43, (S)-2-(4-fluorophenyl)-4-(3-(methylsulfonyl)phenyl)-1-(((1s,4R)-4-(trifluoromethyl)cyclohexyl)methyl)piperazine] | 0.207 µM | 48% |  | 0.047 µM |  | 0.015 µM | 240 (54) % | 0.24 µM |  | 0.027 µM |  |  |  | 27 (43) % |  |  | 47 (32) %
